4 compounds from ChEMBL document CHEMBL1155592, “New antibacterial metabolites from the cyanobacterium Nostoc commune(EAWAG 122b)” (2000) can be followed below.

The structures appear in SMILES notation. In brackets after ≈: the same amount, converted by molar mass.

For one experiment, the system named is Bacillus cereus. In words: Antibacterial activity against Bacillus cereus ATCC 10702. The format is functional.
Experiment [1] relates to Staphylococcus epidermidis. Briefly: Antibacterial activity against Staphylococcus epidermidis ATCC 12228. The format is functional.

For `Cc1ccc(O)c2c1C(=O)c1cccc(O)c1C2=O`, the MIC (against Bacillus cereus; in experiment [1]) was 32 µg/mL (≈ 126 µM) in each case.

Regarding `C[C@@H]1C[C@H](O)C2=C3[C@@H](C[C@@H]4C(C)(C)[C@H](O)CC[C@@]24C)Oc2ccc(C(=O)O)cc2C[C@@]31C`, the MIC (usually the lowest concentration that inhibits growth of the organism) came to 128 µg/mL (≈ 291 µM) against Bacillus cereus and 4 µg/mL (≈ 9.08 µM) in experiment [1].

`Cc1ccc(O)c2c1C(=O)CC2`: the MIC came to 64 µg/mL (≈ 395 µM) in the experiment on Bacillus cereus and 128 µg/mL (≈ 789 µM) in experiment [1].

As to `O=C(N[C@H](CO)[C@H](O)c1ccc([N+](=O)[O-])cc1)C(Cl)Cl` [CHLORAMPHENICOL], the values for the MIC (in the experiment with Bacillus cereus; in experiment [1]) were 8 µg/mL (≈ 24.8 µM) and 4 µg/mL (≈ 12.4 µM), respectively.
